# Source: patent US20080021030A1, “Substituted Pyrazoles As Ppar Agonists” (priority 2003, published 2008)
# Where a name gives a salt, the structure may show the parent alone.
# Experiments:
# Test in all cases: Transient transfection (transactivation) assay in CV-1 cells, GAL4-PPAR LBD chimera, SPAP reporter
# Format in all cases: cell-based
# hPPAR alpha = biological target: T1, hPPAR alpha (Homo sapiens, UniProt Q07869); settings: read-out: EC50 μM HPPARα
# T1 construct: expressed in transfected cells; host or cells: CV-1 cells
# T1 sequence (Q07869 239-466 limits assumed): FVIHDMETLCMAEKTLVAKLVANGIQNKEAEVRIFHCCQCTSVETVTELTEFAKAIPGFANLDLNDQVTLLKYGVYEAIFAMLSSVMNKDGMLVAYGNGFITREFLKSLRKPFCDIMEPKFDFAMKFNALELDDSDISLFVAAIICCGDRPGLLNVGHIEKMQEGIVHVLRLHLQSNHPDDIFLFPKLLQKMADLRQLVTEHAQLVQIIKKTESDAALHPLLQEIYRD
# Source text: (§1) Compounds were screened for functional potency in transient transfection assays in CV-1 cells for their ability to activate the PPAR subtypes (transactivation assay). A previously established chimeric receptor system was utilized to allow comparison of the relative transcriptional activity of the receptor subtypes on the same target gene and to prevent endogenous receptor activation from complicating the interpretation of results. See, for example, Lehmann, J. M.; Moore, L. B.; Smith-Oliver, T. A.; Wilkison, W. O.; Willson, T. M.; Kliewer, S. A., An antidiabetic thiazolidinedione is a high affinity ligand for peroxisome proliferator-activated receptor gamma (PPARgamma), J. Biol. Chem., 270, 12953-6 (1995). The ligand binding domains for murine and human PPAR alpha, PPAR gamma, and PPAR delta were each fused to the yeast transcription factor GAL4 DNA binding domain. CV-1 cells were transiently transfected with expression vectors for the respective PPAR chimera along with a reporter construct containing five copies of the GAL4 DNA binding site driving expression of secreted placental alkaline phosphatase (SPAP) and beta-galactosidase. After 16 h, the medium was exchanged to DME medium supplemented with 10% delipidated fetal calf serum and the test compound at the appropriate concentration. After an additional 24 h, cell extracts were prepared and assayed for alkaline phosphatase and β-galactosidase activity. Alkaline phosphatase activity was corrected for transfection efficiency using the beta-galactosidase activity as an internal standard (see, for example, Kliewer, S. A., et. al. Cell 83, 813-819 (1995)). Rosiglitazone (BRL 49653) was used as a positive control in the hPPAR gamma assay. The positive control in the hPPAR alpha assays was 2-4-[2-(3-[4-fluorophenyl]-1-heptylureido)ethyl]-phenoxy-(2-methyl propionic acid (WO 97/36579). The positive control for PPAR delta assays was 2-{2-methyl-4-[({4-methyl-2-{trifluoromethyl)phenyl]-1,3-thiazol-5-yl}methyl)sulfanyl]phenoxy}acetic acid (WO 01/00603). The positive control was (5-{4-[2-(Methyl-pyridin-2-yl-amino)-ethoxy]-benzyl}-thiazolidine-2,4-dione (J. Med. Chem. 1994, 37(23), 3977), for PPAR gamma.
# (§2) Activities in three hPPAR subtypes are reported in the table and are expressed in micromolar.
# hPPAR delta = biological target: T2, hPPAR delta (Homo sapiens, UniProt Q03181); settings: read-out: EC50 μM HPPARδ
# T2 construct: expressed in transfected cells; host or cells: CV-1 cells
# T2 sequence (Q03181 211-439 limits assumed): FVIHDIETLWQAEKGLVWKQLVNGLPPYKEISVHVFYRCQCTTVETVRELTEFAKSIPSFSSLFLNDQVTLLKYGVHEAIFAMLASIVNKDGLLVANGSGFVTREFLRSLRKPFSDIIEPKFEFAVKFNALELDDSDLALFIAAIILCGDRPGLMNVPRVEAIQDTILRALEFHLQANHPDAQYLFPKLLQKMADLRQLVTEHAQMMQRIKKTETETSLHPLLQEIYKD
# Source text: as §1, §2
# hPPAR gamma = biological target: T3, hPPAR gamma (Homo sapiens, UniProt P37231); settings: read-out: EC50 μM HPPARγ
# T3 construct: expressed in transfected cells; host or cells: CV-1 cells
# T3 sequence (P37231 238-503 limits assumed): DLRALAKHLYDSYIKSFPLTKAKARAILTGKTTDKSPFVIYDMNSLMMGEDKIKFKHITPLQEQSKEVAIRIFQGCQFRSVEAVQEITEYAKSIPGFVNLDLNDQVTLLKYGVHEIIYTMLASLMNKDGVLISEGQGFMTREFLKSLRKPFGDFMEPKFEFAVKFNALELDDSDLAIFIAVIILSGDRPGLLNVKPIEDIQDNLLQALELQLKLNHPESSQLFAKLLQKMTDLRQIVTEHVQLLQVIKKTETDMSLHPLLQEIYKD
# Source text: Compounds were screened for functional potency in transient transfection assays in CV-1 cells for their ability to activate the PPAR subtypes (transactivation assay). A previously established chimeric receptor system was utilized to allow comparison of the relative transcriptional activity of the receptor subtypes on the same target gene and to prevent endogenous receptor activation from complicating the interpretation of results. […] The ligand binding domains for murine and human PPAR alpha, PPAR gamma, and PPAR delta were each fused to the yeast transcription factor GAL4 DNA binding domain. CV-1 cells were transiently transfected with expression vectors for the respective PPAR chimera along with a reporter construct containing five copies of the GAL4 DNA binding site driving expression of secreted placental alkaline phosphatase (SPAP) and beta-galactosidase. After 16 h, the medium was exchanged to DME medium supplemented with 10% delipidated fetal calf serum and the test compound at the appropriate concentration. After an additional 24 h, cell extracts were prepared and assayed for alkaline phosphatase and β-galactosidase activity.
EC50 (hPPAR alpha) [µM],EC50 (hPPAR delta) [µM],EC50 (hPPAR gamma) [µM],SMILES
0.029,> 25,0.014,"CCCCc1ccc(-c2cc(C(=O)NCc3ccc(OC(C)(C)C(=O)O)c(C)c3)nn2C)cc1 [Example 29, 2-((4-[({[5-(4-butylphenyl)-1-methyl-1H-pyrazol-3-yl]carbonyl}amino)methyl]-2-methylphenyl}oxy)-2-methylpropanoic acid]"
0.093,> 25,0.026,"Cc1cc(CNC(=O)c2cc(-c3ccc(-c4ccccc4C)cc3)n(C)n2)ccc1OC(C)(C)C(=O)O [Example 31, 2-methyl-2-(2-methyl-4-[({[1-methyl-5-(2′-methylbiphenyl-4-yl)-1H-pyrazol-3-yl]carbonyl}amino)methyl]phenoxy}propanoic acid]"
1.06,> 25,1.04,"Cc1cc(CNC(=O)c2cc(-c3ccc(N4CCOCC4)cc3)nn2C)ccc1OC(C)(C)C(=O)O [Example 39, 2-methyl-2-[(2-methyl-4-{[({1-methyl-3-[4-(4-morpholinyl)phenyl]-1H-pyrazol-5-yl}carbonyl)amino]methyl}phenyl)oxy]propanoic acid]"
0.293,5.59,0.187,"Cc1cc(CNC(=O)c2cc(-c3cccc(N4CCCCC4)c3)n(C)n2)ccc1OC(C)(C)C(=O)O [Example 40, 2-methyl-2-[(2-methyl-4-{[({1-methyl-5-[3-(1-piperidinyl)phenyl]-1H-pyrazol-3-yl}carbonyl)amino]methyl}phenyl)oxy]propanoic acid]"
0.504,> 25,0.151,"Cc1cc(CNC(=O)c2cc(-c3cccc(N4CCCC4)c3)n(C)n2)ccc1OC(C)(C)C(=O)O [Example 41, 2-methyl-2-[(2-methyl-4-{[({1-methyl-5-[3-(1-pyrrolidinyl)phenyl]-1H-pyrazol-3-yl}carbonyl)amino]methyl}phenyl)oxy]propanoic acid]"
0.293,> 25,1.66,"Cc1cc(CNC(=O)c2cc(-c3cccc(N4CCCCC4)c3)nn2C)ccc1OC(C)(C)C(=O)O [Example 42, 2-methyl-2-{2-methyl-4-[({[1-methyl-3-(3-piperidin-1-ylphenyl)-1H-pyrazol-5-yl]carbonyl}amino)methyl]phenoxy}propanoic acid]"
0.257,> 25,0.138,"Cc1cc(CNC(=O)Cc2cc(-c3ccc(C(C)(C)C)cc3)nn2C)ccc1OC(C)(C)C(=O)O [Example 43, 2-[(4-{[({3-[4-(1,1-dimethylethyl)phenyl]-1-methyl-1H-pyrazol-5-yl}acetyl)amino]methyl}-2-methylphenyl)oxy]-2-methylpropanoic acid]"
1.3,> 25,0.006,"Cc1cc(CNC(=O)Cc2cc(-c3ccc(C(C)(C)C)cc3)n(C)n2)ccc1OC(C)(C)C(=O)O [Example 44, 2-[(4-{[({5-[4-(1,1-dimethylethyl)phenyl]-1-methyl-1H-pyrazol-3-yl}acetyl)amino]methyl}-2-methylphenyl)oxy]-2-methylpropanoic acid]"
0.836,> 25,0.049,Cc1cc(CNC(=O)c2cc(-c3ccc(N4CCCCC4)cc3)nn2C)ccc1OC(C)(C)C(=O)O [Example 45]
0.294,> 25,0.353,"Cc1cc(CNC(=O)c2cc(Cc3ccc(C(C)(C)C)cc3)nn2C)ccc1OC(C)(C)C(=O)O [Example 46, 2-{[4-({[(3-{[4-(1,1-dimethylethyl)phenyl]methyl}-1-methyl-1H-pyrazol-5-yl)carbonyl]amino}methyl)-2-methylphenyl]oxy}-2-methylpropanoic acid]"
0.044,1.15,0.059,"C=CCn1nc(-c2ccc(C(C)(C)C)cc2)cc1C(=O)NCc1ccc(OC(C)(C)C(=O)O)c(C)c1 [Example 47, 2-({4-[({[3-[4-(1,1-dimethylethyl)phenyl]-1-(2-propen-1-yl)-1H-pyrazol-5-yl]carbonyl}amino)methyl]-2-methylphenyl}oxy)-2-methylpropanoic acid]"
0.204,> 25,1.7,"Cc1cc(CNC(=O)c2cc(-c3ccc(C(C)(C)C)cc3)n(Cc3ccccc3)n2)ccc1OC(C)(C)C(=O)O [Example 50, 2-({4-[({[5-[4-(1,1-dimethylethyl)phenyl]-1-(phenylmethyl)-1H-pyrazol-3-yl]carbonyl}amino)methyl]-2-methylphenyl}oxy)-2-methylpropanoic acid]"
0.3,> 25,0.14,"Cc1ccc(CNC(=O)c2cc(-c3ccc(C(C)(C)C)cc3)nn2CCc2ccccc2)cc1OC(C)(C)C(=O)O [Example 51, 2-({5-[({[3-[4-(1,1-dimethylethyl)phenyl]-1-(2-phenylethyl)-1H-pyrazol-5-yl]carbonyl}amino)methyl]-2-methylphenyl}oxy)-2-methylpropanoic acid]"
0.571,> 25,> 25,"Cc1cc(CNC(=O)c2cc(-c3ccc(C(C)(C)C)cc3)n(CCN3CCOCC3)n2)ccc1OC(C)(C)C(=O)O [Example 54, 2-[(4-{[({5-[4-(1,1-dimethylethyl)phenyl]-1-[2-(4-morpholinyl)ethyl]-1H-pyrazol-3-yl}carbonyl)amino]methyl}-2-methylphenyl)oxy]-2-methyl propanoic acid hydrochloride]"
0.444,> 25,0.748,"Cc1cc(CNC(=O)c2cc(-c3ccc(C(C)(C)C)cc3)nn2CCN2CCOCC2)ccc1OC(C)(C)C(=O)O [Example 55, 2-[(4-{[({3-[4-(1,1-dimethylethyl)phenyl]-1-[2-(4-morpholinyl)ethyl]-1H-pyrazol-5-yl}carbonyl)amino]methyl}-2-methylphenyl)oxy]-2-methyl propanoic acid]"
0.192,5.93,1.38,"C=CCn1nc(-c2ccc(C(C)(C)C)cc2)cc1C(=O)NCc1ccc(OC(C)(C)C(=O)O)cc1 [Example 60, 2-({4-[({[3-[4-(1,1-dimethylethyl)phenyl]-1-(2-propen-1-yl)-1H-pyrazol-5-yl]carbonyl}amino)methyl]phenyl}oxy)-2-methylpropanoic acid]"
0.115,2.42,0.147,"Cc1cc(CNC(=O)c2cc(-c3ccc(C(C)(C)C)cc3)nn2Cc2ccccc2)ccc1OC(C)(C)C(=O)O [Example 61, 2-({4-[({[3-[4-(1,1-dimethylethyl)phenyl]-1-(phenylmethyl)-1H-pyrazol-5-yl]carbonyl}amino)methyl]-2-methylphenyl}oxy)-2-methylpropanoic acid]"
